In ChEMBL document CHEMBL3797044, “Computer-aided design, synthesis, and biological evaluation of new indole-2-carboxamide derivatives as PI3Kα/EGFR inhibitors” (Bioorg Med Chem Lett, 2016):
Calls of active or inactive are those of the source. The calls are words filed in the database; no cut-off is given here.

Experiments:
K562 = experiment: Cytotoxicity against human K562 cells assessed as growth inhibition after 24 hrs by MTT assay; type: functional, cell-based; conditions: K562, 24 h
HCT-116 = experiment: Induction of apoptosis in human HCT116 assessed as increase in caspase-3 activity at 120 uM incubated for 48 hrs followed by DEVD-pNA substrate addition by caspase-3 colorimetric assay; type: functional
MDA-MB-231 = experiment: Induction of apoptosis in human MDA231 assessed as increase in caspase-3 activity at 120 uM incubated for 48 hrs followed by DEVD-pNA substrate addition by caspase-3 colorimetric assay; type: functional

| SMILES | IC50 (K562) [µM] | Activity (HCT-116) | Activity (MDA-MB-231) |
| --- | --- | --- | --- |
| O=C(c1ccccc1)c1cccc(NC(=O)c2cc3ccccc3[nH]2)c1 | > 100 |  |  |
| O=C(Nc1cccc(C(O)c2ccccc2)c1)c1cc2ccccc2[nH]1 (stereo not given) | > 100 | Active | Active |
| O=C(Nc1ccc(C(O)c2ccccc2)cc1)c1cc2ccccc2[nH]1 (stereo not given) | > 100 |  |  |
| O=C(c1ccccc1)c1ccc(NC(=O)c2cc3ccccc3[nH]2)cc1 | > 100 |  |  |
| CC(=O)c1ccc(NC(=O)c2cc3ccccc3[nH]2)cc1 | > 100 |  |  |
| CC(O)c1ccc(NC(=O)c2cc3ccccc3[nH]2)cc1 (stereo not given) | > 100 |  |  |
| CC(O)c1cccc(NC(=O)c2cc3ccccc3[nH]2)c1 (stereo not given) | > 100 |  |  |
| CC(=O)c1cccc(NC(=O)c2cc3ccccc3[nH]2)c1 | > 100 |  |  |
